Key:
[1] = target: T1, ERK2 (Homo sapiens, UniProt P28482); experiment: ERK2 enzyme activity test (ADP-Glo Kinase Assay); format: biochemical; details: read-out: IC50 value of the inhibition on ERK2 enzyme activity
T1 construct: purchased R&D 1879-KS-010
Procedure: (§1) The purpose of this experiment is to detect the inhibitory ability of the compounds on the ERK2 enzyme activity, and evaluate the in vitro activity of the compounds based on the IC50. The ADP-Glo™ Kinase Assay Kit is used in this experiment. Under the action of the enzyme, the substrate is phosphorylated and ADP is produced at the same time. The ADP-Glo reagent is added to remove the unreacted ATP in the reaction system, and the ADP produced by the reaction is detected by the kinase detection reagent. In the presence of the compound, the inhibition rate of the compound is calculated by measuring the signal value.
(§2) ATP was diluted to 500 μM with the buffer. The compound was dissolved in DMSO to prepare a stock solution with an initial concentration of 20 mM, and then Bravo (SGC120TH34702, Agilent Technologies) was used to dilute the stock solution to desired concentrations. Finally, a 3 μL of a mixed solution of enzyme and substrate, and 1 μL of different concentrations of the compound (the initial concentration is 50 μM, 4-fold dilution) were added to each well of the 384-well plate, and the plate was incubated at 30° C. for 10 minutes, and finally 1 μL of 500 μM ATP solution was added to each well, and the plate was incubated at 30° C. for 2 hours. Then 5 μL of ADP-Glo was added, and the plate was incubated at 30° C. for 40 minutes. Then 10 μL of kinase detection buffer was added, and the plate was incubated at 30° C. for 40 minutes. The 384-well plate was taken out and placed in a microplate reader (BMG labtech, PHERAstar FS), and the chemiluminescence was measured by the microplate reader.
(§3) Microsoft Excel, Graphpad Prism 5 was used to process and analyze the data.

[2] = tested on: Colo205 cells; experiment: In vitro proliferation inhibition test on Colo205 tumor cells (CellTiter-Glo); format: cell-based; details: Homo sapiens, COLO 205, 72 h; 3 days of culture, CTG; read-out: IC50 value of the inhibition on in vitro Colo205 tumor cell proliferation
Procedure: The purpose of this experiment is to test the inhibitory activity of the compounds on the proliferation of Colo205 cells (CCL-222, ATCC) in vitro. The cells were treated in vitro with different concentrations of the compounds. After 3 days of culture, the cell proliferation was tested with CTG (CellTiter-Glo® Luminescent Cell Viability Assay, Promega, Catalog No. G7573) reagent, and the in vitro activity of the compounds was evaluated according to the IC50 value.
In the following, taking the in vitro proliferation inhibition test method of Colo205 cells as an example, the method in the present disclosure for testing the in vitro proliferation inhibitory activity of the compounds of the present disclosure is described. This method is also applicable to, but not limited to, the in vitro proliferation inhibitory activity test on other tumor cells.
Colo205 cells were digested, centrifuged and then resuspended. The single cell suspension was mixed well, and the density of viable cells was adjusted to 5.0×10^4 cells/ml with cell culture medium (RPMI1640+2% FBS), and 95 μl/well was added to a 96-well cell culture plate. Only 100 μl medium was added to the peripheral wells of the 96-well plate. The culture plate was incubated in an incubator for 24 hours (37° C., 5% CO2).
The compound was dissolved in DMSO and prepared into a stock solution with an initial concentration of 20 mM. The initial concentration of the small molecule compound was 2 mM, and then 4-fold diluted into 9 points, and the 10th point is DMSO. Another 96-well plate was taken and 90 μl of cell culture medium (RPMI1640+2% FBS) was added to each well, then 10 μl of different concentrations of the test sample was added to each well. The mixture was mixed well, and then 5 μL of different concentrations of the test sample was added to the cell culture plate with duplicate well for each sample. The culture plate was incubated in an incubator for 3 days (37° C., 5% CO2). The 96-well cell culture plate was taken out, 50 μL CTG solution was added to each well, and the plate was incubated for 10 minutes at room temperature. In a microplate reader (BMG labtech, PHERAstar FS), chemiluminescence was measured with the microplate reader.
as §3

[3] = target: T2, ERK1 (Homo sapiens, UniProt P27361); experiment: ERK1 enzyme activity test (ADP-Glo Kinase Assay); format: biochemical; details: read-out: IC50 value of the inhibition on ERK1 enzyme activity
T2 construct: purchased R&D 1879-KS-010
Procedure: as §1, with “the ERK1” for “the ERK2”, “detected with” for “detected by”
as §2, with “diluted to 300 μM with” for “diluted to 500 μM with”, “Finally, a […] of” for “Finally, a 3 μL of”, “and 1 μL, of different” for “and 1 μL of different”, “μL of 300 μM ATP” for “μL of 500 μM ATP”, “μL of Kinase detection buffer” for “μL of kinase detection buffer”
as §3

T2 sequence (P27361 whole entry): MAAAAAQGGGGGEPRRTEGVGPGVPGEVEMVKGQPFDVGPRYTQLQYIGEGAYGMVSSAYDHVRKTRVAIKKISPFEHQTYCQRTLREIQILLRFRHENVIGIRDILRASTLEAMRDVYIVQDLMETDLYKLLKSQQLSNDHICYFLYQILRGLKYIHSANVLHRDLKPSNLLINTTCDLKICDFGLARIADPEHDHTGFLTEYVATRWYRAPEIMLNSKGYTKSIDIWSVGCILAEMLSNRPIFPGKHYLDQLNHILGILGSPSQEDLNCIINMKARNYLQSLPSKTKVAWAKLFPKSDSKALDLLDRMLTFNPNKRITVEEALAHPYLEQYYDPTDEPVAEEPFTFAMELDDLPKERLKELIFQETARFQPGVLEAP
T1 sequence (P28482 2-360 limits assumed): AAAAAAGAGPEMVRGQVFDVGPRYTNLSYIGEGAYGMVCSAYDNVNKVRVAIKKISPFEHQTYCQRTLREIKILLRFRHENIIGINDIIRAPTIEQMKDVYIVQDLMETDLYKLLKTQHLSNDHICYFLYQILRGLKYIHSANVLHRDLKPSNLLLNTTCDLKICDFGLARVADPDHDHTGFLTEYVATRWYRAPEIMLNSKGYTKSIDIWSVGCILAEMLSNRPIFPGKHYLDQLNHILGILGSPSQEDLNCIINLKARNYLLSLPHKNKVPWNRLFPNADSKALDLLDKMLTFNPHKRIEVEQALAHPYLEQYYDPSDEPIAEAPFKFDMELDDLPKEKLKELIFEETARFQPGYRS

| IC50 [1] [nM] | IC50 [2] [nM] | IC50 [3] [nM] | Compound |
| --- | --- | --- | --- |
| 3 | 32 | – | Cn1nccc1Nc1ncc(Cl)c(-c2cc3n(c2)C(=O)N([C@H](CO)c2cccc(Cl)c2)C3)n1 [Example 2, (S)-6-(5-Chloro-2-((1-methyl-1H-pyrazol-5-yl)amino)pyrimidin-4-yl)-2-(1-(3-chlorophenyl)-2-hydroxyethyl)-1H-pyrrolo[1,2-c]imidazol-3(2H)-one] |
| 18 | – | – | Cc1cnc(Nc2ccnn2C)nc1-c1cc2n(c1)C(=O)N([C@H](CN)c1cccc(Cl)c1)C2 [Example 11, (S)-2-(2-Amino-1-(3-chlorophenyl)ethyl)-6-(5-methyl-2-((1-methyl-1H-pyrazol-5-yl)amino)pyrimidin-4-yl)-1H-pyrrolo[1,2-c]imidazol-3(2H)-one] |
| 45 | 120 | 67 | Cn1nccc1Nc1nccc(-c2cc3n(c2)C(=O)N([C@H](CO)c2ccc(Cl)cc2)C3)n1 [Example 21, (S)-2-(1-(4-Chlorophenyl)-2-hydroxyethyl)-6-(2-((1-methyl-1H-pyrazol-5-yl)amino)pyrimidin-4-yl)-1H-pyrrolo[1,2-c]imidazol-3(2H)-one] |
| 10 | 74 | 14 | Cc1cnc(Nc2ccnn2C)nc1-c1cc2n(c1)C(=O)N([C@H](CO)c1ccc(F)c(Cl)c1)C2 [Example 6, (S)-2-(1-(3-Chloro-4-fluorophenyl)-2-hydroxyethyl)-6-(5-methyl-2-((1-methyl-1H-pyrazol-5-yl)amino)pyrimidin-4-yl)-1H-pyrrolo[1,2-c]imidazol-3(2H)-one] |
| 6 | 82 | – | O=C1N([C@H](CO)c2cccc(Cl)c2)Cc2cc(-c3nc(NC4CCOCC4)ncc3Cl)cn21 [Example 4, (S)-6-(5-Chloro-2-((tetrahydro-2H-pyran-4-yl)amino)pyrimidin-4-yl)-2-(1-(3-chlorophenyl)-2-hydroxyethyl)-1H-pyrrolo[1,2-c]imidazol-3(2H)-one] |
| 45 | – | – | Cc1cnc(Nc2ccnn2C)nc1-c1cc2n(c1)C(=O)N([C@H](C)c1cccc(Cl)c1)C2 [Example 12, (R)-2-(1-(3-Chlorophenyl)ethyl)-6-(5-methyl-2-((1-methyl-1H-pyrazol-5-yl)amino)pyrimidin-4-yl)-1H-pyrrolo[1,2-c]imidazol-3(2H)-one] |
| 16 | – | – | Cc1cnc(Nc2ccnn2C)nc1-c1cc2n(c1)C(=O)N(Cc1ccc(F)c(F)c1)C2 [Example 18, 2-(3,4-Difluorobenzyl)-6-(5-methyl-2-((1-methyl-1H-pyrazol-5-yl)amino)pyrimidin-4-yl)-1H-pyrrolo[1,2-c]imidazol-3(2H)-one] |
| 63 | 158 | – | O=C1N([C@H](CO)c2cccc(Cl)c2)Cc2cc(-c3nc(NC4CC(O)C(F)C4)ncc3Cl)cn21 (stereo partly drawn) [Example 7, 6-(5-Chloro-2-((3-fluoro-4-hydroxycyclopentyl)amino)pyrimidin-4-yl)-2-((S)-1-(3-chlorophenyl)-2-hydroxyethyl)-1H-pyrrolo[1,2-c]imidazol-3(2H)-one] |
| – | 77 | 12 | Cc1cnc(Nc2ccnn2C)nc1-c1cc2n(c1)C(=O)N([C@H](CO)c1cccc(Cl)c1)CC2 [Example 9, (S)-2-(1-(3-Chlorophenyl)-2-hydroxyethyl)-6-(5-methyl-2-((1-methyl-1H-pyrazol-5-yl)amino)pyrimidin-4-yl)-3,4-dihydropyrrolo[1,2-c]pyrimidin-1(2H)-one] |
| 2 | 90 | 9 | COc1cc(F)cc([C@@H](CO)N2Cc3cc(-c4nc(Nc5ccnn5C)ncc4C)cn3C2=O)c1 [Example 1, (S)-2-(1-(3-Fluoro-5-methoxyphenyl)-2-hydroxyethyl)-6-(5-methyl-2-((1-methyl-1H-pyrazol-5-yl)amino)pyrimidin-4-yl)-1H-pyrrolo[1,2-c]imidazol-3(2H)-one] |
| – | 81 | 10 | C[C@@H](CO)Nc1ncc(Cl)c(-c2cc3n(c2)C(=O)N([C@H](CO)c2cccc(Cl)c2)C3)n1 [Example 5, 6-(5-Chloro-2-(((S)-1-hydroxypropan-2-yl)amino)pyrimidin-4-yl)-2-((S)-1-(3-chlorophenyl)-2-hydroxyethyl)-1H-pyrrolo[1,2-c]imidazol-3(2H)-one] |
| 2 | 99 | 2 | CNC[C@H](c1cccc(Cl)c1)N1Cc2cc(-c3nc(Nc4ccnn4C)ncc3C)cn2C1=O [Example 13, (S)-2-(1-(3-Chlorophenyl)-2-(methylamino)ethyl)-6-(5-methyl-2-((1-methyl-1H-pyrazol-5-yl)amino)pyrimidin-4-yl)-1H-pyrrolo[1,2-c]imidazol-3(2H)-one] |
| 5 | 92 | – | Cc1cnc(Nc2ccnn2C)nc1-c1cc2n(c1)C(=O)N([C@H](CO)c1ccc(Cl)c(F)c1)C2 [Example 14, (S)-2-(1-(4-Chloro-3-fluorophenyl)-2-hydroxyethyl)-6-(5-methyl-2-((1-methyl-1H-pyrazol-5-yl)amino)pyrimidin-4-yl)-1H-pyrrolo[1,2-c]imidazol-3(2H)-one] |
| 20 | 101 | 24 | Cn1nccc1Nc1nccc(-c2cc3n(c2)C(=O)N([C@H](CO)c2cccc(F)c2)C3)n1 [Example 19, (S)-2-(1-(3-Fluorophenyl)-2-hydroxyethyl)-6-(2-((1-methyl-1H-pyrazol-5-yl)amino)pyrimidin-4-yl)-1H-pyrrolo[1,2-c]imidazol-3(2H)-one] |
| 44 | 180 | 70 | Cn1nccc1Nc1nccc(-c2cc3n(c2)C(=O)N([C@H](CO)c2ccc(F)c(Cl)c2)C3)n1 [Example 16, (S)-2-(1-(3-Chloro-4-fluorophenyl)-2-hydroxyethyl)-6-(2-((1-methyl-1H-pyrazol-5-yl)amino)pyrimidin-4-yl)-1H-pyrrolo[1,2-c]imidazol-3(2H)-one] |

Source: patent US20220185818A1, “PYRROLOHETEROCYCLIC DERIVATIVE, PREPARATION METHOD THEREFOR, AND APPLICATION THEREOF IN MEDICINE” (Jiangsu Hengrui Medicine Co., Ltd., priority 2019, published 2022)
